Experimental data as given in ChEMBL document CHEMBL3627599, “The antioxidant properties of salicylate derivatives: A possible new mechanism of anti-inflammatory activity” (Bioorg Med Chem Lett, 2015).

Experiments:
[1] = Antioxidant activity assessed as DPPH free radical scavenging activity at 0.01 to 1 mM after 30 mins; assay type: physicochemical; conditions: 0.5 h, 1000 µM
[2] = Antioxidant activity assessed as DPPH free radical scavenging activity at 1 mM after 30 mins; assay type: physicochemical; conditions: 0.5 h, 1000 µM

| Compound | Activity [1] | Activity [2] |
| --- | --- | --- |
| COc1ccc(O)c(C(=O)O)c1 | Active | – |
| O=C(O)c1cc(Cl)ccc1O [5-CHLOROSALICYLIC ACID] | Active | – |
| O=C(O)c1cc([N+](=O)[O-])ccc1O | Active | – |
| O=C(O)c1ccccc1O [SALICYLIC ACID] | Active | – |
| Cc1ccc(O)c(C(=O)O)c1 | Active | – |

Other lines, results leading:

| Activity [1] | Activity [2] | Compound |
| --- | --- | --- |
| Active | – | NC(=O)c1cc(O)ccc1O |
| Active | – | Nc1ccc(O)c(C(=O)O)c1 [MESALAMINE] |
| Active | – | O=C(O)c1cc(O)ccc1O [GENTISIC ACID] |
| – | Active | CC(=O)Nc1ccc(O)c(C(N)=O)c1 |
| Active | – | COC(=O)c1cc(O)ccc1O [METHYL 2,5-DIHYDROXYBENZOATE] |
